Test results: paper PMC9118553, “In Vivo Bioconcentration of 10 Anionic Surfactants in Rainbow Trout Explained by In Vitro Data on Partitioning and S9 Clearance” (Environmental Science & Technology, 2022)
Like-named read-outs stand apart in the source and are kept apart here.

Experiment: In vivo bioconcentration experiment with a mixture of anionic surfactants, flow-through aquaria, 10 °C, pH 7.8
Parameters: species or system rainbow trout
Settings: rainbow trout, whole fish homogenate, other: waterborne exposure in flow-through aquaria; for k el: read-out: Elimination rate constant kT (converted)
Method in brief: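 Juvenile rainbow trout exposed to a 10-surfactant mixture for 4 days, then 7-day depuration, in flow-through aquaria at 10 °C, pH 7.8. Whole-fish homogenates and water analysed by LC-MS/MS against BEHP internal standard. kU, kT and BCF (=kU/kT) estimated by joint Bayesian model including water-concentration uncertainty.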

## CCCCC(CC)COC(=O)CC(C(=O)OCC(CC)CCCC)S(=O)(=O)O (centres unmarked) [DOSS, bis(2-ethylhexyl)sulfosuccinate]
26 μg L^–1, pH 7.8, determined using nominal concentrations in water
  k el: 1.56e-05 s⁻¹
26 μg L^–1, pH 7.8, elimination phase, 97 h, individual fish
  concentration at 97 h: 57 ng/g
26 μg L^–1, pH 7.8, elimination phase, 98 h, individual fish
  concentration at 98 h: 47 ng/g
26 μg L^–1, pH 7.8, elimination phase, 103 h, individual fish
  concentration at 103 h: 35 ng/g
26 μg L^–1, pH 7.8, elimination phase, 128 h, individual fish
  concentration at 128 h: 13.9 ng/g
26 μg L^–1, pH 7.8, exposure phase, 2 h, individual fish
  concentration at 2 h: 8.5 ng/g
26 μg L^–1, pH 7.8, exposure phase, 3 h, individual fish
  concentration at 3 h: 14.9 ng/g
26 μg L^–1, pH 7.8, exposure phase, 6 h, individual fish
  concentration at 6 h: 36 ng/g
26 μg L^–1, pH 7.8, exposure phase, 24 h, individual fish
  concentration at 24 h: 66 ng/g
26 μg L^–1, pH 7.8, exposure phase, 48 h, individual fish
  concentration at 48 h: 48 ng/g
26 μg L^–1, pH 7.8, exposure phase, 72 h, individual fish
  concentration at 72 h: 50 ng/g
26 μg L^–1, pH 7.8, exposure phase, 96 h, individual fish
  concentration at 96 h: 84 ng/g
26 μg L^–1, pH 7.8, from measured concentrations in water, Bayesian estimate, 95% credible interval in brackets
  k el: 1.75e-05 s⁻¹
pH 7.8, measured concentrations in water, simpler estimation method (Text S3), 95% confidence intervals in brackets
  k el: 1.78e-05 s⁻¹
